In patent US20230290452A1, “Electronic Health Record (EHR)-Based Classifier for Acute Respiratory Distress Syndrome (ARDS) Subtyping” (Endpoint Health Inc., priority 2020, published 2023):

How the values were obtained:
Format in all cases: in vivo, human
COVID-19 patients = assay: CoDEX study dataset, dexamethasone vs placebo by Model C.4 subphenotype
Source text: The dataset from the CoDEX study was used for analysis. The CoDEX study involved treating COVID-19 patients with dexamethasone. K-means clustering was applied using Model C.4 described above in Table 70 and patients were separated into two clusters assigned to Subphenotype A and Subphenotype B. Tables 75A and 75B show the corresponding results.

ARDS patients [1] = assay: ARMA-KARMA-LARMA study dataset, lisofylline and ketoconazole vs placebo by subphenotype; conditions: for Mortality: ARMA-KARMA-LARMA; for Dead 90: 1 0, Percent: mortality
Source text: The dataset from the ARMA-KARMA-LARMA study was used for analysis. Interventions in the study included lisofylline and ketoconazole.

ARDS patients [2] = assay: LASRS study dataset, methylprednisolone vs placebo by Model C.4 subphenotype; conditions: for Dead 90: 1 0, Frequency: dead at 90 days; for Mortality: cohort receiving methylprednisolone
Source text: The dataset from the LASRS study was used for analysis. The LASRS study involved administration of corticosteroids, specifically methylprednisolone. K-means clustering was applied using Model C.4 described above in Table 70 and patients were separated into two subphenotypes based on the K-means cluster. Overall mortality was 40% in Subphenotype B and 28.57% in Subphenotype A (p = 0.3287). Within Subphenotype B, mortality rates were 40% regardless of whether the patient received methylprednisolone or a placebo; however, in Subphenotype A, mortality was 50% in the cohort receiving methylprednisolone, compared with 9.09% in the placebo cohort (p = 0.0382).

ARDS patients [3] = assay: eICU data filtered for patients without prior indication for statin use, statin intervention by subphenotype
Source text: This included patients with history of angina, congestive heart failure, coronary artery bypass grafting, multiple coronary artery bypass, hypertension requiring treatment, previous acute myocardial infarction, peripheral vascular disease, previous coronary intervention procedure, stroke, and/or transient ischemic attack.

ARDS patients [4] = assay: eICU (v1) dataset, statin intervention by Model C.4 subphenotype; set-up: Alive: unit not given here
ARDS patients [5] = assay: as above; set-up: Alive: unit not given here; conditions: for Alive / Dead / Mortality: no consideration to number doses and minimum dose size
Source text: The dataset from the eICU (v1) dataset was used for analysis. The intervention of interest was statins.
The individual statins were then examined with no consideration to number of doses and minimum dose size. Using this methodology, there were several differential responses identified (bolded and underlined cells as shown below in Table 81).

[6] = Patients administered lisofylline (title), Subphenotype A
[7] = Patients administered lisofylline (title), Subphenotype B
[8] = Subphenotype A patients, not dead at 90 days
[9] = Subphenotype B patients, not dead at 90 days
[10] = active arm vs placebo, Subphenotype A patients
[11] = active arm vs placebo, Subphenotype B patients
[12] = admitted with drug or initiated during ICU stay, All Patients
[13] = admitted with drug or initiated during ICU stay, Subphenotype A
[14] = admitted with drug or initiated during ICU stay, Subphenotype B
[15] = initiated during ICU stay, All Patients
[16] = initiated during ICU stay, Subphenotype A
[17] = initiated during ICU stay, Subphenotype B
[18] = on drug at time of ICU admit, All Patients
[19] = on drug at time of ICU admit, Subphenotype A
[20] = on drug at time of ICU admit, Subphenotype B

C[C@@H]1C[C@H]2[C@@H]3CCC4=CC(=O)C=C[C@]4(C)[C@@]3(F)[C@@H](O)C[C@]2(C)[C@@]1(O)C(=O)CO [dexamethasone]
28-day Mortality (COVID-19 patients; Subphenotype A): 54.72%
Increase in number of vent free days versus placebo (COVID-19 patients; Subphenotype A): 45%
Vent Free Days (COVID-19 patients; Subphenotype A): 8.81 days
28-day Mortality (COVID-19 patients; Subphenotype B): 62.50%
Increase in number of ventilator free days versus placebo (COVID-19 patients; Subphenotype B): 101%
Vent Free Days (COVID-19 patients; Subphenotype B): 5.09 days

C[C@@H](O)CCCCn1c(=O)c2c(ncn2C)n(C)c1=O [lisofylline]
Mortality (ARDS patients [1]; Subphenotype A, patients who received lisofylline): 31.4%
Mortality (ARDS patients [1]; Subphenotype B, patients who got lisofylline): 40%
Dead 90: 0 0, Frequency (ARDS patients [1]; [6]): 36
Dead 90: 0 0, Percent (ARDS patients [1]; [6]): 72%
Dead 90: 1 0, Frequency (ARDS patients [1]; [6]): 14
Dead 90: 1 0, Percent (ARDS patients [1]; [6]): 28%
Dead 90: 0 0, Frequency (ARDS patients [1]; [7]): 51
Dead 90: 0 0, Percent (ARDS patients [1]; [7]): 72.86%
Dead 90: 1 0, Frequency (ARDS patients [1]; [7]): 19
Dead 90: 1 0, Percent (ARDS patients [1]; [7]): 27.14%

C[C@H]1C[C@@H]2[C@H]([C@@H](O)C[C@@]3(C)[C@H]2CC[C@]3(O)C(=O)CO)[C@@]2(C)C=CC(=O)C=C12 [methylprednisolone]
Dead 90: 1 0, Frequency (ARDS patients [2]; Subphenotype A patients): 5
Dead 90: 1 0, Row Percent (ARDS patients [2]; Subphenotype A patients, mortality): 50%
Dead 90: 0 0, Frequency (ARDS patients [2]; [8]): 5
Dead 90: 0 0, Row Percent (ARDS patients [2]; [8]): 50%
Mortality (ARDS patients [2]; Subphenotype A): 50%
Dead 90: 1 0, Frequency (ARDS patients [2]; Subphenotype B patients): 18
Dead 90: 1 0, Percent (ARDS patients [2]; Subphenotype B patients, mortality): 40%
Dead 90: 0 0, Frequency (ARDS patients [2]; [9]): 27
Dead 90: 0 0, Percent (ARDS patients [2]; [9]): 60%
Mortality (ARDS patients [2]; Subphenotype B): 40%
Dead 90: 0 0, Frequency (ARDS patients [1]; [10]): 24
Dead 90: 0 0, Percent (ARDS patients [1]; [10]): 68.57%
Dead 90: 1 0, Frequency (ARDS patients [1]; [10]): 11
Dead 90: 1 0, Percent (ARDS patients [1]; [10]): 31.43%
Dead 90: 0 0, Frequency (ARDS patients [1]; [11]): 15
Dead 90: 0 0, Percent (ARDS patients [1]; [11]): 60%
Dead 90: 1 0, Frequency (ARDS patients [1]; [11]): 10
Dead 90: 1 0, Percent (ARDS patients [1]; [11]): 40%

CCC(C)(C)C(=O)O[C@H]1C[C@@H](C)C=C2C=C[C@H](C)[C@H](CC[C@@H]3C[C@@H](O)CC(=O)O3)[C@H]21 [simvastatin]
Alive (ARDS patients [3]; [12]): 23
Dead (ARDS patients [3]; [12]): 5
Mortality Rate (ARDS patients [3]; [12]): 17.86
Alive (ARDS patients [3]; [13]): 15
Dead (ARDS patients [3]; [13]): 1
Mortality Rate (ARDS patients [3]; [13]): 6.25
Alive (ARDS patients [3]; [14]): 8
Dead (ARDS patients [3]; [14]): 4
Mortality Rate (ARDS patients [3]; [14]): 33.33
Alive (ARDS patients [3]; [15]): 6
Dead (ARDS patients [3]; [15]): 4
Mortality Rate (ARDS patients [3]; [15]): 40
Alive (ARDS patients [3]; [16]): 5
Dead (ARDS patients [3]; [16]): 1
Mortality Rate (ARDS patients [3]; [16]): 16.67
Alive (ARDS patients [3]; [17]): 1
Dead (ARDS patients [3]; [17]): 3
Mortality Rate (ARDS patients [3]; [17]): 75
Alive (ARDS patients [3]; [18]): 17
Dead (ARDS patients [3]; [18]): 1
Mortality Rate (ARDS patients [3]; [18]): 5.56
Alive (ARDS patients [3]; [19]): 10
Dead (ARDS patients [3]; [19]): 0
Mortality Rate (ARDS patients [3]; [19]): 0
Alive (ARDS patients [3]; [20]): 7
Dead (ARDS patients [3]; [20]): 1
Mortality Rate (ARDS patients [3]; [20]): 12.5
Alive (ARDS patients [4]; [12]): 176
Dead (ARDS patients [4]; [12]): 26
Alive (ARDS patients [4]; [13]): 126
Dead (ARDS patients [4]; [13]): 10
Mortality Rate (ARDS patients [4]; [13]): 7.35
Alive (ARDS patients [4]; [14]): 50
Dead (ARDS patients [4]; [14]): 16
Mortality Rate (ARDS patients [4]; [14]): 24.24
Alive (ARDS patients [4]; [15]): 89
Dead (ARDS patients [4]; [15]): 15
Mortality Rate (ARDS patients [4]; [15]): 14.42
Alive (ARDS patients [4]; [16]): 63
Dead (ARDS patients [4]; [16]): 6
Mortality Rate (ARDS patients [4]; [16]): 8.70
Alive (ARDS patients [4]; [17]): 26
Dead (ARDS patients [4]; [17]): 9
Mortality Rate (ARDS patients [4]; [17]): 25.71
Alive (ARDS patients [4]; [18]): 87
Dead (ARDS patients [4]; [18]): 11
Mortality Rate (ARDS patients [4]; [18]): 11.22
Alive (ARDS patients [4]; [19]): 63
Dead (ARDS patients [4]; [19]): 4
Mortality Rate (ARDS patients [4]; [19]): 5.97
Alive (ARDS patients [4]; [20]): 24
Dead (ARDS patients [4]; [20]): 7
Mortality Rate (ARDS patients [4]; [20]): 22.58
Mortality Rate (ARDS patients [5]; [12]): 12.87
Alive (ARDS patients [5]; All Patients): 167
Dead (ARDS patients [5]; All Patients): 26
Mortality (ARDS patients [5]; All Patients): 13%
Alive (ARDS patients [5]; Subphenotype A): 122
Dead (ARDS patients [5]; Subphenotype A): 10
Mortality (ARDS patients [5]; Subphenotype A): 8%
Alive (ARDS patients [5]; Subphenotype B): 45
Dead (ARDS patients [5]; Subphenotype B): 16
Mortality (ARDS patients [5]; Subphenotype B): 26%
